Experimental findings from patent EP4039094A1, “NOVEL ANTIFUNGAL COMPOUNDS” (Max-Planck-Gesellschaft zur Förderung der Wissenschaften …, priority 2021, dated 2022) are described below.

Assay [1] concerns the target T1, Stp1/Stp4/Stp3 subcomplex (Mycosarcoma maydis, UniProt A0A0D1C5E3+A0A0D1CU07+A0A0D1EAN2).
T1 sequence (A0A0D1CU07 29-515): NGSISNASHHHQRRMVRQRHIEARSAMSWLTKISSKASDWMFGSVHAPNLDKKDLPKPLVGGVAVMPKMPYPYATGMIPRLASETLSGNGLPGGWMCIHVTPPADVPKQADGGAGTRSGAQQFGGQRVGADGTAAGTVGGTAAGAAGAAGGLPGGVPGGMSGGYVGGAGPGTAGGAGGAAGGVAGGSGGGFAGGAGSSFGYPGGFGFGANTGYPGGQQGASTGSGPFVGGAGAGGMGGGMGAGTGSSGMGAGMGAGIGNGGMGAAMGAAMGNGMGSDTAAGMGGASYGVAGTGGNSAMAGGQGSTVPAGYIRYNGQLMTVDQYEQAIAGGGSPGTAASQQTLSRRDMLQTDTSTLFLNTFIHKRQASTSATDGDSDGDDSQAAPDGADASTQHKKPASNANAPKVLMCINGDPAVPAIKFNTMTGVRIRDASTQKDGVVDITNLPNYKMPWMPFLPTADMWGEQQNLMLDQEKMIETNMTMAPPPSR
T1 sequence (A0A0D1C5E3 24-129): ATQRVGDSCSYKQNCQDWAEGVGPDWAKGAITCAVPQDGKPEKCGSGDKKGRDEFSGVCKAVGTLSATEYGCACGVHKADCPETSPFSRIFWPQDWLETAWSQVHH
T1 sequence (A0A0D1EAN2 25-327): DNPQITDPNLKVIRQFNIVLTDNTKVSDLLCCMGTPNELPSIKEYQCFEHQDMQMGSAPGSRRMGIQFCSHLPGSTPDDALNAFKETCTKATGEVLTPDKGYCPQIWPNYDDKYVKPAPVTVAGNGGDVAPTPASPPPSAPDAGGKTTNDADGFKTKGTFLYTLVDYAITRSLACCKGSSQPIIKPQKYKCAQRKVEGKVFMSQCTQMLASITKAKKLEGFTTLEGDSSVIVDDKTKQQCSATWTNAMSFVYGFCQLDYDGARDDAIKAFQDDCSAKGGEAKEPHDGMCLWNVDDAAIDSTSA
Briefly: Beta-Glo confirmatory assay (β-galactosidase expression) in NL73. Format: cell-based, U. maydis. As to conditions: NL73 strain, Table 5; read-out: B-glo IC50. The protocol: This system allows luminescence-based quantification of β-galactosidase expression in cells which serves as a readout for promoter activation by interacting complex members Stp1, Stp3 and Stp4. Overnight cultures of NL73 and NL70 strains were harvested as described above. Dilution series of compound stock solution were pre-dispensed into black 384-well assay plates (Corning 4513) using Echo520 Nanoliter dispenser starting from 10 µM with 3-fold dilution over 8 steps. In the viability setup, 15 µl of NL73 cell suspension were dispensed into the assay plates using Multidrop Combi. One column of the assay plate was filled with 15 µl of NL70 cell suspension. In the toxicity setup, 15 µl of NL70 cell suspension in low stringency medium were dispensed into the assay plates with one column being filled with 15 µl of NL70 cell suspension in high stringency medium. Plates were sealed with Breathe-Easy sealing membrane, lidded and incubated in a humid chamber over night at 30°C and 140 rpm in an Infors HT Multitron Pro. After approximately 19 h, plates were centrifuged for 1 min at 500 rpm. 4 µl of Beta-Glo assay solution were added using Multidrop Combi. The plates were sealed again and incubated for 2.5 h at room temperature, unlidded. Luminescence readout was determined on a Spectramax Paradigm detection platform for 0.2 s. Dose response data was analysed with Quattro Software Suite.

The test system of assay [2] is U. fabae. Briefly: Uromyces fabae - Vicia faba leaf infection, pustule formation versus DMSO leaflet. Format: in vivo. The protocol: The Uromyces fabae - Vicia faba system was established by initially obtaining spores as well as broad bean seeds from the Institut für Phytomedizin at Hohenheim University, Germany. Briefly, Vicia faba plants (Bingenheimer Saatgut Frühe Weißkeimige, G142) were propagated in soil up to about the 4 leaf stage (2-3 plants per pot). Plants were transferred to a chamber lined with wet paper. 100 mg U. fabae spores were mixed with 160 mg skimmed milk powder in 200 ml sterile H2O. Tween 20 was added to a final concentration of 0.01 % and the mixture was stirred in the dark for 45 min. Leaves were sprayed with the suspension on both the upper and lower side and afterwards the entire compartment was fogged with H2O before closure and kept in the dark for 20 h. Plants were then gradually allowed to dry and were placed in a growth chamber under a light regime of 16 h light (24°C) and 8 h (20°C) dark until symptoms developed (10-12 days). Plants were tossed and spores were collected on underlying aluminum foil, and aliquots were frozen at -80°C.
For the infection with compounds added, 10 mg of U. fabae spores were mixed with 16 mg skimmed milk powder in 20 ml sterile H2O. Tween 20 was added to a final concentration of 0.01 % and the mixture was stirred in the dark for 45 min. Compounds were diluted to the desired concentration into in the spore suspension. The controls received the same amount of DMSO. Per bean plant, one pinnate leaf with two leaflets was selected and one of the leaflets was infected with spores + compound and the other with spores + DMSO, respectively. To this end leaves were lightly sprayed with H2O and the 100µl spore solution containing the compound or DMSO respectively was applied on the upper part of the using a small painting brush. Afterwards the plants were placed in a chamber lined with wet paper, fogged with H2O before closure and kept in the dark for 20 h. Plants were then gradually allowed to dry and were placed in a growth chamber under a light regime of 16 h light (24°C) and 8 h (20°C) dark until symptoms developed. The symptoms were quantified by using a previously described method (Sillero and Rubiales, 2002) with minor modifications. Comparisons of pustule formation were done as follow: leaf treated with spores plus DMSO (control) versus leaf treated with spores plus compound in DMSO (test). A single bifurcated leaf was used for this assay, and one half received the control and the other half receive spores with compound. Then it was determined whether pustule formation occurs or is inhibited. Leaves were scored for the development of brownish-red pustules. Only when brownish-red pustules containing powdery spores (urediniospores) appeared on the control leaf an infection was counted as valid. All compounds were tested in three biological replicates. Pictures were taken at 12-14 days post infection.

Where [3] appears, read: 0.5 mM final concentration in the inoculum.
[4] abbreviates: 1 mM final concentration in the inoculum of Vicia faba.

pIC50: −log10 of the molar value.

One may read the pIC50 as the negative decadic logarithm of the IC50, by convention in mol/L.

As to `Cc1ccc(-c2c(-c3ccc(C)cc3)[n+]([O-])c3ccccn23)cc1` [Compound 1-A], in assay [1], the pIC50 is 6.12. Moreover, the “virulence inhibition of U. fabae (pustule formation)” value (shortened to “virulence inhibition of U. fabae”) in assay [2] (setting [3]) was “developed symptoms”; in assay [2] (setting [4]), “able to inhibit pustule formation”.

Take `Cc1ccc(CSc2nc(=O)n(C3CCCC3)c3c2CCC3)cc1` [Compound 1-C]: the “virulence inhibition of U. fabae” value in assay [2] (0.1 mM final concentration), in assay [2] (setting [3]) and in assay [2] (setting [4]) was “inhibited pustule formation” each time. Further, the “inhibitory activity on U. fabae virulence” value in assay [2] (Figure 6, concentration not given) was “strong inhibitory activity”.

For the compound `O=[N+]([O-])c1ccc(-c2c(-c3ccccc3)n3ccccc3[n+]2[O-])cc1` [Compound 3-A], the pIC50 in assay [1] is 6.07. For the same compound, the “virulence inhibition of U. fabae” value in assay [2] (setting [3]) is reported as “developed symptoms”; in assay [2] (setting [4]), “able to inhibit pustule formation”.

For the compound `[O-][n+]1c(-c2ccc(C(F)(F)F)cc2)c(-c2ccc(C(F)(F)F)cc2)n2ccccc21` [Compound 2-A], the pIC50 in assay [1] is 6.64. Also, the results for the “virulence inhibition of U. fabae” value in assay [2] (setting [3]) and in assay [2] (setting [4]) were “fully inhibit pustule formation” and “able to inhibit pustule formation”, respectively.

Turning to `CC(C)n1ncc2cc(NS(=O)(=O)c3cc(F)ccc3F)cnc21` [Compound 1-B], in assay [2] (setting [4]), the “virulence inhibition of U. fabae” value is reported as “completely inhibited”.
